Structures can show the parent of a compound that is named as a salt.
Test system: not listed separately
Test: Microsomal metabolic stability
Details: human liver microsomes, 0 min
Description: Half-life (t1/2) values were measured at five time points.
Intrinsic clearance values (CLint) with standard error and t1⁄2 values were measured.
The final incubation volume was 50 μL. A minus cofactor control incubation was included for each compound tested where 0.1 M phosphate buffer pH 7.4 was added instead of NADPH (minus NADPH). Two control compounds were included with each species. All incubations were performed singularly for each test compound.
The reactions were stopped by transferring 20 μL of incubate to 60 μL methanol at the appropriate time points. The termination plates were centrifuged at 2500 rpm for 20 min at 4 °C to precipitate the protein.
Following protein precipitation, the sample supernatants were combined in cassettes of up to 4 compounds, the internal standard was added, and samples were analysed using Cyprotex generic LC-MS/MS conditions.
From a plot of ln peak area ratio (compound peak area/internal standard peak area) against time, the gradient of the line was determined.

SMILES | Compound Remaining (% of 0 min), 0 min
CC(C)(C)c1ccc(C(CN)c2ccc(C(C)(C)C)cc2)cc1.Cl [5f, 2,2-Bis(4-tert-butylphenyl)ethan-1-aminium chloride] | 100 % of 0 min
Cl.NCC(c1ccc(Cl)cc1)c1ccc(OC(F)(F)F)cc1 (centres unmarked) [5g, 2-(4-chlorophenyl)-2-(4-trifluoromethoxyphenyl)ethan-1-aminium chloride] | 100 % of 0 min
CC(C)(C)c1ccc(C(CN)c2ccc(OC(F)(F)F)cc2)cc1 (centres unmarked) [5a, 2-(4-tert-butylphenyl)-2-(4-trifluoromethoxyphenyl)ethan-1-aminium hydrochloride] | 100 % of 0 min

Same assay, conditions: human liver microsomes, 5 min

SMILES | Compound Remaining (% of 0 min), 5 min
CC(C)(C)c1ccc(C(CN)c2ccc(C(C)(C)C)cc2)cc1.Cl [5f, 2,2-Bis(4-tert-butylphenyl)ethan-1-aminium chloride] | 97.2 % of 0 min
Cl.NCC(c1ccc(Cl)cc1)c1ccc(OC(F)(F)F)cc1 (centres unmarked) [5g, 2-(4-chlorophenyl)-2-(4-trifluoromethoxyphenyl)ethan-1-aminium chloride] | 99.0 % of 0 min
CC(C)(C)c1ccc(C(CN)c2ccc(OC(F)(F)F)cc2)cc1 (centres unmarked) [5a, 2-(4-tert-butylphenyl)-2-(4-trifluoromethoxyphenyl)ethan-1-aminium hydrochloride] | 95.8 % of 0 min

Same assay, conditions: human liver microsomes, 15 min

SMILES | Compound Remaining (% of 0 min), 15 min
CC(C)(C)c1ccc(C(CN)c2ccc(C(C)(C)C)cc2)cc1.Cl [5f, 2,2-Bis(4-tert-butylphenyl)ethan-1-aminium chloride] | 92.2 % of 0 min
Cl.NCC(c1ccc(Cl)cc1)c1ccc(OC(F)(F)F)cc1 (centres unmarked) [5g, 2-(4-chlorophenyl)-2-(4-trifluoromethoxyphenyl)ethan-1-aminium chloride] | 96.2 % of 0 min
CC(C)(C)c1ccc(C(CN)c2ccc(OC(F)(F)F)cc2)cc1 (centres unmarked) [5a, 2-(4-tert-butylphenyl)-2-(4-trifluoromethoxyphenyl)ethan-1-aminium hydrochloride] | 92.3 % of 0 min

Same assay, conditions: human liver microsomes, 30 min

SMILES | Compound Remaining (% of 0 min), 30 min
CC(C)(C)c1ccc(C(CN)c2ccc(C(C)(C)C)cc2)cc1.Cl [5f, 2,2-Bis(4-tert-butylphenyl)ethan-1-aminium chloride] | 88.0 % of 0 min
Cl.NCC(c1ccc(Cl)cc1)c1ccc(OC(F)(F)F)cc1 (centres unmarked) [5g, 2-(4-chlorophenyl)-2-(4-trifluoromethoxyphenyl)ethan-1-aminium chloride] | 86.8 % of 0 min
CC(C)(C)c1ccc(C(CN)c2ccc(OC(F)(F)F)cc2)cc1 (centres unmarked) [5a, 2-(4-tert-butylphenyl)-2-(4-trifluoromethoxyphenyl)ethan-1-aminium hydrochloride] | 86.0 % of 0 min

Same assay, conditions: human liver microsomes, 45 min

SMILES | Compound Remaining (% of 0 min), 45 min
CC(C)(C)c1ccc(C(CN)c2ccc(C(C)(C)C)cc2)cc1.Cl [5f, 2,2-Bis(4-tert-butylphenyl)ethan-1-aminium chloride] | 80.7 % of 0 min
Cl.NCC(c1ccc(Cl)cc1)c1ccc(OC(F)(F)F)cc1 (centres unmarked) [5g, 2-(4-chlorophenyl)-2-(4-trifluoromethoxyphenyl)ethan-1-aminium chloride] | 72.8 % of 0 min
CC(C)(C)c1ccc(C(CN)c2ccc(OC(F)(F)F)cc2)cc1 (centres unmarked) [5a, 2-(4-tert-butylphenyl)-2-(4-trifluoromethoxyphenyl)ethan-1-aminium hydrochloride] | 81.4 % of 0 min

Same assay, conditions: human liver microsomes, minus NADPH control, 45 min

SMILES | Compound Remaining (% of 0 min), Control
CC(C)(C)c1ccc(C(CN)c2ccc(C(C)(C)C)cc2)cc1.Cl [5f, 2,2-Bis(4-tert-butylphenyl)ethan-1-aminium chloride] | 88.0 % of 0 min
Cl.NCC(c1ccc(Cl)cc1)c1ccc(OC(F)(F)F)cc1 (centres unmarked) [5g, 2-(4-chlorophenyl)-2-(4-trifluoromethoxyphenyl)ethan-1-aminium chloride] | 86.6 % of 0 min
CC(C)(C)c1ccc(C(CN)c2ccc(OC(F)(F)F)cc2)cc1 (centres unmarked) [5a, 2-(4-tert-butylphenyl)-2-(4-trifluoromethoxyphenyl)ethan-1-aminium hydrochloride] | 91.0 % of 0 min

Same assay, conditions: human, microsomes, pH 7.4

SMILES | half-life at 3 μM [h]
CC(C)(C)c1ccc(C(CN)c2ccc(C(C)(C)C)cc2)cc1.Cl [5f, 2,2-Bis(4-tert-butylphenyl)ethan-1-aminium chloride] | 2.47

Same assay, conditions: human, pooled liver microsomes, pH 7.4

SMILES | microsomal CLint at 3 μM [µL/min/mg] | half-life at 3 μM [h]
CC(C)(C)c1ccc(C(CN)c2ccc(C(C)(C)C)cc2)cc1.Cl [5f, 2,2-Bis(4-tert-butylphenyl)ethan-1-aminium chloride] | 9.34 | 
Cl.NCC(c1ccc(Cl)cc1)c1ccc(OC(F)(F)F)cc1 (centres unmarked) [5g, 2-(4-chlorophenyl)-2-(4-trifluoromethoxyphenyl)ethan-1-aminium chloride] | 13.9 | 1.67
CC(C)(C)c1ccc(C(CN)c2ccc(OC(F)(F)F)cc2)cc1 (centres unmarked) [5a, 2-(4-tert-butylphenyl)-2-(4-trifluoromethoxyphenyl)ethan-1-aminium hydrochloride] | 8.91 | 2.6

Test system: not listed separately
Test: Turbidimetric aqueous solubility
Type: physicochemical
Details: buffered aqueous solution (PBS pH 7.4, 1% DMSO), 37 °C, 2 h
Description: Both the estimated precipitation range (lower and upper bound) and a mid-range value were measured. Nicardipine and pyrene were used as control compounds.
The test compound was diluted in buffer to give a range of concentrations (1, 3, 10, 30, and 100 μM; final DMSO concentration 1%) and incubated at 37 °C for 2 hr.
The test compound (10 mM in DMSO) was serially diluted to give solutions of 0.1, 0.3, 1, and 3 mM in DMSO. Each test compound concentration was then further diluted 1 to 100 in buffer (typically 0.01 M phosphate buffered saline pH 7.4) so that the final DMSO concentration was 1%, and the final test compound concentrations were 1, 3, 10, 30, and 100 μM. The experiment was performed at 37 °C and each concentration was incubated in 7 replicate wells. The plates were incubated for 2 h at 37 °C before the absorbance was measured at 620 nm. Nicardipine and pyrene were included as control compounds. The solubility of nicardipine is pH dependent whereas the solubility of pyrene is pH independent.
An estimated precipitation range (lower and upper bound) and a calculated mid-range value were returned, along with any relevant comments, in the form of an Excel spreadsheet.

SMILES | Estimated Precipitation Range, Calculated Mid-Range [µM] | Estimated Precipitation Range, Lower Bound [µM] | Estimated Precipitation Range, Upper Bound [µM]
CC(C)(C)c1ccc(C(CN)c2ccc(C(C)(C)C)cc2)cc1.Cl [5f, 2,2-Bis(4-tert-butylphenyl)ethan-1-aminium chloride] | 3.75 | 1 | 6.5
CC(C)(C)c1ccc(C(CN)c2ccc(OC(F)(F)F)cc2)cc1 (centres unmarked) [5a, 2-(4-tert-butylphenyl)-2-(4-trifluoromethoxyphenyl)ethan-1-aminium hydrochloride] | 65 | 30 | 100

Same assay, conditions: turbidimetric, 37 °C, 2 h

SMILES | Aqueous solubility (in words)
CC(C)(C)c1ccc(C(CN)c2ccc(C(C)(C)C)cc2)cc1.Cl [5f, 2,2-Bis(4-tert-butylphenyl)ethan-1-aminium chloride] | relatively reduced solubility comparable to pyrene
CC(C)(C)c1ccc(C(CN)c2ccc(OC(F)(F)F)cc2)cc1 (centres unmarked) [5a, 2-(4-tert-butylphenyl)-2-(4-trifluoromethoxyphenyl)ethan-1-aminium hydrochloride] | moderate solubility

Test system: MIAPaCa2
Test: Cell viability assay (CellTiter Glo), MIAPaCa2
Type: cell-based
Details: Homo sapiens, MIA PaCa-2, 72 h incubation, mean of independent triplicate experiments, read-out: In vitro anti-proliferative activity IC50, MIAPaCa2
Description: (§1) The antiproliferative activity of compound I as well as its newly synthesised analogues (5a–i) was evaluated in vitro against the three human breast cancer cell lines MDA-MB-231 (TNBC), T47D (ER^+, HER^−), and BT474 (ER^+, HER^+) as well as a human pancreatic cancer cell line MIAPaCa2. The seeding of the corresponding cell lines started one day before incubation, which lasted for 72 h with the different concentrations of the tested compounds. CellTiter Glo reagent (25 μL) was added to the cell plate. The luminescence was analysed after 10 min using a PerkinElmer Envision instrument. The test compounds were used at ten different triplicate concentrations in half log increments up to 100 μM.

SMILES | IC50 [µM]
CC(C)(C)c1ccc(C(CN)c2ccc(C(C)(C)C)cc2)cc1.Cl [5f, 2,2-Bis(4-tert-butylphenyl)ethan-1-aminium chloride] | 5.28
Cl.NCC(c1ccc(Cl)cc1)c1ccc(OC(F)(F)F)cc1 (centres unmarked) [5g, 2-(4-chlorophenyl)-2-(4-trifluoromethoxyphenyl)ethan-1-aminium chloride] | 45.3
CC(C)(C)c1ccc(C(CN)c2ccc(OC(F)(F)F)cc2)cc1 (centres unmarked) [5a, 2-(4-tert-butylphenyl)-2-(4-trifluoromethoxyphenyl)ethan-1-aminium hydrochloride] | 5.51

Test system: MDA-MB-231
Test: Cell viability assay (CellTiter Glo), MDA-MB-231
Type: cell-based
Details: Homo sapiens, 72 h incubation, mean of independent triplicate experiments, read-out: In vitro anti-proliferative activity IC50, MDA-MB-231 ER- PR- HER-
Description: as §1

SMILES | IC50 [µM]
CC(C)(C)c1ccc(C(CN)c2ccc(C(C)(C)C)cc2)cc1.Cl [5f, 2,2-Bis(4-tert-butylphenyl)ethan-1-aminium chloride] | 5.06
Cl.NCC(c1ccc(Cl)cc1)c1ccc(OC(F)(F)F)cc1 (centres unmarked) [5g, 2-(4-chlorophenyl)-2-(4-trifluoromethoxyphenyl)ethan-1-aminium chloride] | 16.9
CC(C)(C)c1ccc(C(CN)c2ccc(OC(F)(F)F)cc2)cc1 (centres unmarked) [5a, 2-(4-tert-butylphenyl)-2-(4-trifluoromethoxyphenyl)ethan-1-aminium hydrochloride] | 5.63

Test system: T47D
Test: Cell viability assay (CellTiter Glo), T47D
Type: cell-based, human
Details: 72 h incubation, mean of independent triplicate experiments, read-out: In vitro anti-proliferative activity IC50, T47D ER+ PR+/- HER-
Description: as §1

SMILES | IC50 [µM]
CC(C)(C)c1ccc(C(CN)c2ccc(C(C)(C)C)cc2)cc1.Cl [5f, 2,2-Bis(4-tert-butylphenyl)ethan-1-aminium chloride] | 4.59

Same assay, conditions: Homo sapiens, T47D, 72 h, 72 h incubation, mean of independent triplicate experiments, read-out: In vitro anti-proliferative activity IC50, T47D ER+ PR+/- HER-

SMILES | IC50 [µM]
CC(C)(C)c1ccc(C(CN)c2ccc(C(C)(C)C)cc2)cc1.Cl [5f, 2,2-Bis(4-tert-butylphenyl)ethan-1-aminium chloride] | 4.7
Cl.NCC(c1ccc(Cl)cc1)c1ccc(OC(F)(F)F)cc1 (centres unmarked) [5g, 2-(4-chlorophenyl)-2-(4-trifluoromethoxyphenyl)ethan-1-aminium chloride] | 15.3
CC(C)(C)c1ccc(C(CN)c2ccc(OC(F)(F)F)cc2)cc1 (centres unmarked) [5a, 2-(4-tert-butylphenyl)-2-(4-trifluoromethoxyphenyl)ethan-1-aminium hydrochloride] | 4.94

Molecular target: hERG potassium channel (Homo sapiens, UniProt Q12809)
Sequence (Q12809 whole entry): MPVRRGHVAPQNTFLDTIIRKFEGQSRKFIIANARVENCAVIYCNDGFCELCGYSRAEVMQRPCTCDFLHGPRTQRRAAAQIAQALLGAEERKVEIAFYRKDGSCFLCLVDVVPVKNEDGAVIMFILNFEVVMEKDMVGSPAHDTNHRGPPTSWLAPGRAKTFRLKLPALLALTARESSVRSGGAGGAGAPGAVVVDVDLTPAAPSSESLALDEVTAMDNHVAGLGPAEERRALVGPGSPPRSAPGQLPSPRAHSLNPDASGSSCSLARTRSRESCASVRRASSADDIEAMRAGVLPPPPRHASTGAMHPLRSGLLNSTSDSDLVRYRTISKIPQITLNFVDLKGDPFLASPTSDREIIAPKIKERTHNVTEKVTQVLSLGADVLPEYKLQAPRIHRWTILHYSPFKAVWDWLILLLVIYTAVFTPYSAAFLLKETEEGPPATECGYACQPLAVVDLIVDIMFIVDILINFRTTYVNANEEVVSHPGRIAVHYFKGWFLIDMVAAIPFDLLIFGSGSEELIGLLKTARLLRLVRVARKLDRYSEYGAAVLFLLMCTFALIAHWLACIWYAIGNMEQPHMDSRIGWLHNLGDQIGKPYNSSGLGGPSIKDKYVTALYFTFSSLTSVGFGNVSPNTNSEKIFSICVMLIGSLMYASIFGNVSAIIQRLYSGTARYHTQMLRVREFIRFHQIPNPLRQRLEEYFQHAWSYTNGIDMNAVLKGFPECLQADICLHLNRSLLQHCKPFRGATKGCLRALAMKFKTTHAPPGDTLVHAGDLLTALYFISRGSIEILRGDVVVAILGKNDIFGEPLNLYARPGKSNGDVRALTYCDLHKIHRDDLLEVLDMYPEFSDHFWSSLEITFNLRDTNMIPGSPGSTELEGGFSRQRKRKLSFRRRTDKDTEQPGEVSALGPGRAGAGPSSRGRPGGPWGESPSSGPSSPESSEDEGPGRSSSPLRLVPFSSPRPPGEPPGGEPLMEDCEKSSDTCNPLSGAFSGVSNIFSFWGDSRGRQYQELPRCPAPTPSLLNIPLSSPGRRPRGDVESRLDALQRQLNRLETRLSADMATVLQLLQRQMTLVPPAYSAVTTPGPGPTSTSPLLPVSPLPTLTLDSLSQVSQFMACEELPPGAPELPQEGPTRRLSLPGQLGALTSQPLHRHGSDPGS
Test: hERG channel inhibition (IonWorks automated patch clamp, CHO-hERG cells)
Details: not given

SMILES | IC50 [µM]
CC(C)(C)c1ccc(C(CN)c2ccc(C(C)(C)C)cc2)cc1.Cl [5f, 2,2-Bis(4-tert-butylphenyl)ethan-1-aminium chloride] | > 25
CC(C)(C)c1ccc(C(CN)c2ccc(OC(F)(F)F)cc2)cc1 (centres unmarked) [5a, 2-(4-tert-butylphenyl)-2-(4-trifluoromethoxyphenyl)ethan-1-aminium hydrochloride] | 3.59

Test system: MDA-MB-231, T47D, BT474, and MIAPaCa2
Test: Cell viability assay, statements across the four cell lines
Type: cell-based, human
Details: Homo sapiens; MDA-MB-231, T47D, BT474, and MIAPaCa2; read-out: IC50 values range across cell lines
Description: as §1

SMILES | IC50 [µM]
CC(C)(C)c1ccc(C(CN)c2ccc(C(C)(C)C)cc2)cc1.Cl [5f, 2,2-Bis(4-tert-butylphenyl)ethan-1-aminium chloride] | 4.59 to 5.28

Same assay, conditions: three human breast and one pancreatic cancer cell line, up to 100 μM

SMILES | Anti-proliferative activity (in words) across the four cell lines
CC(C)(C)c1ccc(C(CN)c2ccc(C(C)(C)C)cc2)cc1.Cl [5f, 2,2-Bis(4-tert-butylphenyl)ethan-1-aminium chloride] | low micromolar antiproliferative activity

Test system: BT474
Test: Cell viability assay (CellTiter Glo), BT474
Type: cell-based, human
Details: 72 h incubation, mean of independent triplicate experiments, read-out: In vitro anti-proliferative activity IC50, BT474 ER+ PR+/- HER+
Description: as §1

SMILES | IC50 [µM]
CC(C)(C)c1ccc(C(CN)c2ccc(C(C)(C)C)cc2)cc1.Cl [5f, 2,2-Bis(4-tert-butylphenyl)ethan-1-aminium chloride] | 4.7

Same assay, conditions: Homo sapiens, BT-474, 72 h, 72 h incubation, mean of independent triplicate experiments, read-out: In vitro anti-proliferative activity IC50, BT474 ER+ PR+/- HER+

SMILES | IC50 [µM]
CC(C)(C)c1ccc(C(CN)c2ccc(C(C)(C)C)cc2)cc1.Cl [5f, 2,2-Bis(4-tert-butylphenyl)ethan-1-aminium chloride] | 4.59
Cl.NCC(c1ccc(Cl)cc1)c1ccc(OC(F)(F)F)cc1 (centres unmarked) [5g, 2-(4-chlorophenyl)-2-(4-trifluoromethoxyphenyl)ethan-1-aminium chloride] | 15.5
CC(C)(C)c1ccc(C(CN)c2ccc(OC(F)(F)F)cc2)cc1 (centres unmarked) [5a, 2-(4-tert-butylphenyl)-2-(4-trifluoromethoxyphenyl)ethan-1-aminium hydrochloride] | 5

— PMC7435868, “Structure-Based Virtual Screening, Synthesis and Biological Evaluation of Potential FAK-FAT Domain Inhibitors for Treatment of Metastatic Cancer” (Molecules, 2020)
